Key:
Androgen receptor = target: T1, Androgen receptor (Homo sapiens, UniProt P10275)
T1 sequence (P10275 whole entry): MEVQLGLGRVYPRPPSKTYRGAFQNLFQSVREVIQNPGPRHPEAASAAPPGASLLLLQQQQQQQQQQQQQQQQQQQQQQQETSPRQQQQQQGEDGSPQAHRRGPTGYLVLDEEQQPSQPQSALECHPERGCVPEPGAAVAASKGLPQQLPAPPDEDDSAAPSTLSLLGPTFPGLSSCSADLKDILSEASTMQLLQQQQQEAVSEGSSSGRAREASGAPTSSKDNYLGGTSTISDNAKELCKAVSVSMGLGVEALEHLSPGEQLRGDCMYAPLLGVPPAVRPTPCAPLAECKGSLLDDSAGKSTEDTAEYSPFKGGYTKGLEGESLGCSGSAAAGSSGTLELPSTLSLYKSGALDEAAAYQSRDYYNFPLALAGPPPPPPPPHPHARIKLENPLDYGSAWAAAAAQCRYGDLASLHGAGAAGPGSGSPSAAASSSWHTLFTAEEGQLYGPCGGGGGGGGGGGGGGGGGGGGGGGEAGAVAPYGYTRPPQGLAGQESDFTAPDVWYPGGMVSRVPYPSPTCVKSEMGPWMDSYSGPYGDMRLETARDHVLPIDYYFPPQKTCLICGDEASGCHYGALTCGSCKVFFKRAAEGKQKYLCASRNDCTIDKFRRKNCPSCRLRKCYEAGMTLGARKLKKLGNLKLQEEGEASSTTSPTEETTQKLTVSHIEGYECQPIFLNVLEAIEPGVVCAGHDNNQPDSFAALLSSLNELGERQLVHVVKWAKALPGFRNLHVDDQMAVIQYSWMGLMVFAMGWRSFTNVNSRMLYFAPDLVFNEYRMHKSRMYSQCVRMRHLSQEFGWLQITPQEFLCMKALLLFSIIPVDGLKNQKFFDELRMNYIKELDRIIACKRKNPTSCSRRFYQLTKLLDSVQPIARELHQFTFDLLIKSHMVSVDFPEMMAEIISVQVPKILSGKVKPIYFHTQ

[1] = target: T2, Muscarinic acetylcholine receptor M1 (Homo sapiens, UniProt P11229); format: functional, cell-based
T2 sequence (P11229 whole entry): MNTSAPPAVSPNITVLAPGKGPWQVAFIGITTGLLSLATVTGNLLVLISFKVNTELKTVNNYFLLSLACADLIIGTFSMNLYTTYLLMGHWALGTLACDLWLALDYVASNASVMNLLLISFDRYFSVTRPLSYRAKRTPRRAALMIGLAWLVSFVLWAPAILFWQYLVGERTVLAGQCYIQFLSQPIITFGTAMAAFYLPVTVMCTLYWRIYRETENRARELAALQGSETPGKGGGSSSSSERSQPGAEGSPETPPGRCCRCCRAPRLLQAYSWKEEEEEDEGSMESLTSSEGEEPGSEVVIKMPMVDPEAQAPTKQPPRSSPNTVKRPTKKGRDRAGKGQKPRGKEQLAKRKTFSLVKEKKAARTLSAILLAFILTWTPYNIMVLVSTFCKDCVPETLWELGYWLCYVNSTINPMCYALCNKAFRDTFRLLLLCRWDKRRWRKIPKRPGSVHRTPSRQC

[2] = target: T2, Muscarinic acetylcholine receptor M1; format: functional, cell-based; remark: listed apart in the source
[3] = target: Gamma-aminobutyric acid receptor subunit alpha-1/alpha-2/beta-2/gamma-2 (Homo sapiens, UniProt P14867+P18507+P47869+P47870); format: protein-complex assay
[4] = target: T3, 5-hydroxytryptamine receptor 1A (Homo sapiens, UniProt P08908)
T3 sequence (P08908 whole entry): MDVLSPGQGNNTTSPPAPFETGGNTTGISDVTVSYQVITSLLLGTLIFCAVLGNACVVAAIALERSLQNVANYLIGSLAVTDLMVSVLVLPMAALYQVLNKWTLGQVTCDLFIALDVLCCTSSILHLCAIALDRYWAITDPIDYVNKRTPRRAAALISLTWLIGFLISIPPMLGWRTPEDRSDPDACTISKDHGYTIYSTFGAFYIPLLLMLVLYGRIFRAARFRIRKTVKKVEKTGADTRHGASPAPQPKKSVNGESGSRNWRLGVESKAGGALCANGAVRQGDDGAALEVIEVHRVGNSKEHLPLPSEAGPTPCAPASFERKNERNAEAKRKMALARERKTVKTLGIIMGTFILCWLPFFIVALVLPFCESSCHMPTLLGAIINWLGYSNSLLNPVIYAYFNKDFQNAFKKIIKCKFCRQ

[5] = target: Voltage-gated inwardly rectifying potassium channel KCNH2 (Homo sapiens, UniProt Q12809); format: functional; settings: read-out: AC50
[6] = target: 3',5'-cyclic-AMP phosphodiesterase 4D (Homo sapiens, UniProt Q08499); format: functional
[7] = target: Gamma-aminobutyric acid receptor subunit alpha-1 (Rattus norvegicus, UniProt P62813)
Note: assay procedure not described here.

Sequence of Gamma-aminobutyric acid receptor subunit alpha-1/alpha-2/beta-2/gamma-2 (P14867 whole entry): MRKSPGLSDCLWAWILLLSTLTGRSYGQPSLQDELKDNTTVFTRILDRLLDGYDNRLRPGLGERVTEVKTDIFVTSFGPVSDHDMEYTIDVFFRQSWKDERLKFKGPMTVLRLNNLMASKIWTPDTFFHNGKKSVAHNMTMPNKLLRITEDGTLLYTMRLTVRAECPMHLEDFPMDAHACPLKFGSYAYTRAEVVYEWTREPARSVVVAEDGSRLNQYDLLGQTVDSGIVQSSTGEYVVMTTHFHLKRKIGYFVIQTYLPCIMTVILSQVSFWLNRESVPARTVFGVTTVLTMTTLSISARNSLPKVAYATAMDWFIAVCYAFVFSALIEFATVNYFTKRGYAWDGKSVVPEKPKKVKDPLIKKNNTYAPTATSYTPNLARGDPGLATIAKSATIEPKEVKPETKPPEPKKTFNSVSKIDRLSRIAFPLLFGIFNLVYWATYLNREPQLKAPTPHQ
Sequence of Gamma-aminobutyric acid receptor subunit alpha-1/alpha-2/beta-2/gamma-2 (P47870 whole entry): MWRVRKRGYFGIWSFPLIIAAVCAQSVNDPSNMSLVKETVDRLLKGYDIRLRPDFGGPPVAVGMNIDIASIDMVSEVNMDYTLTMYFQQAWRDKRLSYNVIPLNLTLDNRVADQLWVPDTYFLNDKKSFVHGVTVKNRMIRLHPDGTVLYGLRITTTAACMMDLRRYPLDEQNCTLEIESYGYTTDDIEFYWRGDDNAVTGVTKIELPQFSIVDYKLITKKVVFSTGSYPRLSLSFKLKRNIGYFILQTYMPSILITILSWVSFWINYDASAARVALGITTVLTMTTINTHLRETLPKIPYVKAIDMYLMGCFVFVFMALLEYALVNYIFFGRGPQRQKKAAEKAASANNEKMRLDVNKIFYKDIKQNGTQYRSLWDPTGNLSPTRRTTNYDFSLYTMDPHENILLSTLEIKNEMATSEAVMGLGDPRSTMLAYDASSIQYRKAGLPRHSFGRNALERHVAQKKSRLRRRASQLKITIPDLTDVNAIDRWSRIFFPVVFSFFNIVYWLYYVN
Sequence of Gamma-aminobutyric acid receptor subunit alpha-1/alpha-2/beta-2/gamma-2 (P18507 whole entry): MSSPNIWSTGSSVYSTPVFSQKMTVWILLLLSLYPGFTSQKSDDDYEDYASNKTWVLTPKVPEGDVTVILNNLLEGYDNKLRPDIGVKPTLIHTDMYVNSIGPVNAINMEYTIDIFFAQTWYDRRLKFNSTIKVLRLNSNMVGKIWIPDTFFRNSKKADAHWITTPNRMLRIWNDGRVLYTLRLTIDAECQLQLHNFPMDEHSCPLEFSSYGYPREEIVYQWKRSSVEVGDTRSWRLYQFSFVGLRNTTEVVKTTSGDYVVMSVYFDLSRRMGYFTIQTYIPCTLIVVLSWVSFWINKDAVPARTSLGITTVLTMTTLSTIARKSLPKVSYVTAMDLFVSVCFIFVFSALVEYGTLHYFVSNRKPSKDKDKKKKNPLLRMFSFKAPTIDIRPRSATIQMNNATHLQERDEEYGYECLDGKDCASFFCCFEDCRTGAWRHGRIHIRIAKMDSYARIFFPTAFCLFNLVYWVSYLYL
Sequence of Gamma-aminobutyric acid receptor subunit alpha-1/alpha-2/beta-2/gamma-2 (P47869 whole entry): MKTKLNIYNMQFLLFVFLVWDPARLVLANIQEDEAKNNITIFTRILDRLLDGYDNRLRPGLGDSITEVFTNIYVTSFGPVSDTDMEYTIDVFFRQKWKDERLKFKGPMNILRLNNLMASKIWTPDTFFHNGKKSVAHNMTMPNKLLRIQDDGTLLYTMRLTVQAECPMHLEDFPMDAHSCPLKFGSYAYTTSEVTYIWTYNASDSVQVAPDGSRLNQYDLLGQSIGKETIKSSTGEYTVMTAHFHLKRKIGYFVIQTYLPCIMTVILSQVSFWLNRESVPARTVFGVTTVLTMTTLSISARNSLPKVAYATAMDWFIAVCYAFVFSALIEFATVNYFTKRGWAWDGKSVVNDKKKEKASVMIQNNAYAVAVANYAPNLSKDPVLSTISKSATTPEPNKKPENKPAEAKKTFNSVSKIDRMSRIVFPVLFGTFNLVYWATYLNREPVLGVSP
Sequence of Voltage-gated inwardly rectifying potassium channel KCNH2 (Q12809 whole entry): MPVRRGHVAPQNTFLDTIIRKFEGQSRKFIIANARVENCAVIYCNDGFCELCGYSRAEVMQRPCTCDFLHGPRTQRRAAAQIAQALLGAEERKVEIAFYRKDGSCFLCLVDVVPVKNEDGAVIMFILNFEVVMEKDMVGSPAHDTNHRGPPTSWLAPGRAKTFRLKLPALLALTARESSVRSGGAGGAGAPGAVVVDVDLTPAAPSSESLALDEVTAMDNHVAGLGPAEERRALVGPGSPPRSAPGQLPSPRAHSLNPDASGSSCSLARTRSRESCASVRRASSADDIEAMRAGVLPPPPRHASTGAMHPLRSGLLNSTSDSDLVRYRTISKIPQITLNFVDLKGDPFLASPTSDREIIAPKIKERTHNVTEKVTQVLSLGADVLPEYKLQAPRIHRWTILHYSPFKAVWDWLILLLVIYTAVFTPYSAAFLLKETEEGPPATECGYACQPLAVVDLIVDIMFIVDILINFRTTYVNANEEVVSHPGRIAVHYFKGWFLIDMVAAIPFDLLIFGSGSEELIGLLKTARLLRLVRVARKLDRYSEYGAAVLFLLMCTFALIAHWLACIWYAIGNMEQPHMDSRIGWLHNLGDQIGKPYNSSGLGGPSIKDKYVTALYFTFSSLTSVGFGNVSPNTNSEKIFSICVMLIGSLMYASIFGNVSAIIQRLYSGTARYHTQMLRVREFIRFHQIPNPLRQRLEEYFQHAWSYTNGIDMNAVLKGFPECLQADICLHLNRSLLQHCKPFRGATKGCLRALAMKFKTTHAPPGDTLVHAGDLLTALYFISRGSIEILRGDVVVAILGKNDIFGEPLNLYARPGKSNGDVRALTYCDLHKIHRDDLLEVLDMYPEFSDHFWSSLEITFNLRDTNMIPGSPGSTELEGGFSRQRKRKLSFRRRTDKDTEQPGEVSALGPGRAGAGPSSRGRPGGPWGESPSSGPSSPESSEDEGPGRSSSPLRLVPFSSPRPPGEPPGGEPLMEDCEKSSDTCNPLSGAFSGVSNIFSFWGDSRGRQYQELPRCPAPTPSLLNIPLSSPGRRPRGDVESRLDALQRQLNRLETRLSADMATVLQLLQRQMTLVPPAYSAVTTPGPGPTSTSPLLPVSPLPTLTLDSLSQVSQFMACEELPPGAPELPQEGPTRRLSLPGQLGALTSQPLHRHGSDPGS
Sequence of Gamma-aminobutyric acid receptor subunit alpha-1 (P62813 whole entry): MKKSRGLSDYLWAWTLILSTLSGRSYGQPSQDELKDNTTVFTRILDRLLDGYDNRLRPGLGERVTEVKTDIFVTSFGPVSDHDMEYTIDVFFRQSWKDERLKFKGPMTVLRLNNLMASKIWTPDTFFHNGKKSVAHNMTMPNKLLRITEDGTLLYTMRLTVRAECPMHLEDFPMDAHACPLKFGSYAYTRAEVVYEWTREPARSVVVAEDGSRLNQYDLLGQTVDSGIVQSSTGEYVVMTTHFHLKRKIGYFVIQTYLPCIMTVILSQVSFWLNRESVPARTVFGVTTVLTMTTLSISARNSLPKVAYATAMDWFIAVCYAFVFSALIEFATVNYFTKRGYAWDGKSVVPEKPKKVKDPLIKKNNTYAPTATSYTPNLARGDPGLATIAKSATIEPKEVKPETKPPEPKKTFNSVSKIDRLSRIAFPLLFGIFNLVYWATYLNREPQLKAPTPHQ
Sequence of 3',5'-cyclic-AMP phosphodiesterase 4D (Q08499 whole entry): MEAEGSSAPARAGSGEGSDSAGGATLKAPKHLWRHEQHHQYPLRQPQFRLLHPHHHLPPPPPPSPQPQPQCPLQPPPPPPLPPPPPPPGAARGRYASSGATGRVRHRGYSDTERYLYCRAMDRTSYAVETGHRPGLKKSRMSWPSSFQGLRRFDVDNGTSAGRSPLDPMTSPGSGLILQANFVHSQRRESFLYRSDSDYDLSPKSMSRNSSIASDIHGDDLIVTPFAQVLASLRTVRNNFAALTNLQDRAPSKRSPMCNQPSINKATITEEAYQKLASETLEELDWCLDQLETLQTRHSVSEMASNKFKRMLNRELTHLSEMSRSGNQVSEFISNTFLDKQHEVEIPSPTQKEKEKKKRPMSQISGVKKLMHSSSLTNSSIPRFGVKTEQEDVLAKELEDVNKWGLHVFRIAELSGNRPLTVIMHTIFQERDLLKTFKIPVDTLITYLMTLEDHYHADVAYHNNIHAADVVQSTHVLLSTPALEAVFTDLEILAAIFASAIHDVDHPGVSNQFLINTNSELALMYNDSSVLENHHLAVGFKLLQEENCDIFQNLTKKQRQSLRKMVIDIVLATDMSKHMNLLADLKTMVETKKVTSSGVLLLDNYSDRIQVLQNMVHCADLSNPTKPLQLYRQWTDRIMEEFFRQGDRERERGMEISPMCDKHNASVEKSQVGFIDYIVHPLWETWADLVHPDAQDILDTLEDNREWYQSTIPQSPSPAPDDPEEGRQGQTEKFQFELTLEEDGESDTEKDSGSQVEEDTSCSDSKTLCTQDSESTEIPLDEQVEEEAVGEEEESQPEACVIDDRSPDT

Row | Structure (SMILES) | AC50 (Androgen receptor) | AC50 [1] | AC50 [2] | AC50 [3] | AC50 [4] | AC50 [5] | AC50 [6] | AC50 [7]
1 | Cc1cn(-c2cc(NC(=O)c3ccc(C)c(Nc4nccc(-c5cnccn5)n4)c3)cc(C(F)(F)F)c2)cn1 [RADOTINIB] | > 30 µM | > 30 µM | > 30 µM | > 30 µM | > 30 µM | > 30 µM | > 30 µM | 
2 | COCC(=O)O[C@]1(CCN(C)CCCc2nc3ccccc3[nH]2)CCc2cc(F)ccc2[C@@H]1C(C)C [MIBEFRADIL] | > 30 µM | 17.7 µM | > 3 µM | > 10 µM | 0.746 µM |  |  | > 30 µM
3 | CC(C)(Oc1ccc(C(=O)c2ccc(Cl)cc2)cc1)C(=O)O [FENOFIBRIC ACID] | > 30 µM | > 30 µM | > 30 µM | > 30 µM | > 30 µM | > 30 µM |  | 
4 | COC(=O)N[C@H](C(=O)N1CC2(CC2)C[C@H]1c1ncc(-c2ccc3c(c2)C(F)(F)c2cc(-c4ccc5nc([C@@H]6[C@H]7CC[C@H](C7)N6C(=O)[C@@H](NC(=O)OC)C(C)C)[nH]c5c4)ccc2-3)[nH]1)C(C)C | > 10 µM | > 30 µM | > 30 µM | > 30 µM | > 30 µM | > 30 µM |  | 

From ChEMBL document CHEMBL5291721, “A preclinical secondary pharmacology resource illuminates target-adverse drug reaction associations of marketed drugs” (Nat Commun, 2023)
